Consider four compounds from patent US20110039873A1, “SUBSTITUTED PYRAZOLO[1,5-a] PYRIDINE COMPOUNDS HAVING MULTI-TARGET ACTIVITY” (priority 2009, published 2011).

Experiment [1] deals with T1, recombinant full length human JNK2 enzyme (Homo sapiens, UniProt P45984).
T1 construct: recombinant full length human JNK2 or JNK3 enzyme; purchased Upstate; host or cells: Sf21 cells
As to the kind of experiment: JNK 2 inhibition assay (ATP depletion, luciferase). The class given is biochemical. As to the method: In a 96-well plate, recombinant full length human JNK2 or JNK3 enzyme (40 ng) expressed in Sf21 cells (Upstate) was incubated with the substrate ATF2 (3 uM) for 1 hour in the presence of 10 uM ATP. […] IC50 calculations were plotted using a nonlinear regression curve fit.

The target of experiment [2] is T2, recombinant human phosphodiesterase 10A1 enzyme (Homo sapiens, UniProt Q9Y233).
T2 construct: purchased BPS Biosciences; host or cells: Baculovirus infected Sf9 cells
T2 sequence (Q9Y233 1-779 isoform Q9Y233-1): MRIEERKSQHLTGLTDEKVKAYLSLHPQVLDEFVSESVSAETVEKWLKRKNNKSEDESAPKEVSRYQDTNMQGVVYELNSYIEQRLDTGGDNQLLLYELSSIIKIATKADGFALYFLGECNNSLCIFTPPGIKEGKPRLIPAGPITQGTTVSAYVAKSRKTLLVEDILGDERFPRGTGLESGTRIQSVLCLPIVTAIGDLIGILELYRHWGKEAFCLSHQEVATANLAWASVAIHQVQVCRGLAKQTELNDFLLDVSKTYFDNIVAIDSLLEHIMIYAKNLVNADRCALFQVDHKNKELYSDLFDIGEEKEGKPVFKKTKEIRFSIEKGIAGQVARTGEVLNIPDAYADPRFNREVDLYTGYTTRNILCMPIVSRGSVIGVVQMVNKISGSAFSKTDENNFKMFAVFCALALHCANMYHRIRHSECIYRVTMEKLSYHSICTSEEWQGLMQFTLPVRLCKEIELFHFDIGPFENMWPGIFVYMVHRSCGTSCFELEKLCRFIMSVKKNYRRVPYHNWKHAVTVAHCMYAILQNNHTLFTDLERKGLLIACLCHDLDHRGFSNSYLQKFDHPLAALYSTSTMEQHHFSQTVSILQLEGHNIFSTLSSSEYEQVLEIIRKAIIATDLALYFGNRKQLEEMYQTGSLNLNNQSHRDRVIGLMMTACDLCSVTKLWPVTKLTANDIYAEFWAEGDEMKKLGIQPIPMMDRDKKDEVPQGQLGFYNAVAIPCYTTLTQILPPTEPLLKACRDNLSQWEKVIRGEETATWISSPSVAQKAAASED
As to the kind of experiment: PDE10 inhibition assay (PDELight). In kind it is biochemical. The following applies: for IC50: 1 uM cAMP, read-out: PDE 10 Inhibition (IC50 in μM); for PDE-10 inhibition (in words): Table 2.

The test system of experiment [3] is Mouse BV-2 microglial cells. The experiment in a line: BV-2 glial cell assay (TNF-α and MCP-1 by Luminex). The class given is cell-based. The conditions noted are these: for EC50: Mus musculus, BV-2, LPS and IFN-γ activated, 20 hours; for inhibiting glial cell activation (TNF-α and/or MCP-1): Table 3. The protocol: Mouse BV-2 microglial cells were seeded on 96-well plates at a concentration of 3×10^4 cells/well. Cells were activated with 100 ng/mL LPS and IFN-γ (100 ng/mL) in the presence or absence of test compounds (0-30 uM). Following incubation for 20 hours, cells were spun down and supernatant collected. The supernatant was analyzed via Luminex for the presence of TNF-α and MCP-1.

Experiment [4] deals with phosphorylated c-Jun (serine-73). The experiment in a line: Phosphorylated c-JUN (A-beta), SH-SY5Y. The following applies: Homo sapiens. In kind it is cell-based. As to the method: In 96-well plates either human SH-SY5Y neuroblastoma cells at 2.5×10^4 cells/well or E18 rat neuronal cells at 1.5×10^4 cells/well were seeded. […] Supernatant was discarded and cells were fixed with 4% paraformaldehyde (100 ul/well) for 20 minutes. FACE cell based ELISA assay (Active Motif) was performed specific for quantifying phosphorlyated c-Jun (serine-73).

For experiment [5] the test system is unchanged. The experiment in a line: Phosphorylated c-JUN (A-beta), E18 rat neuronal cells. The class given is cell-based. The following applies: Amyloid Beta peptide 30 uM, 3 hours, read-out: p-cJun Abeta E18 (EC50 in μM). As to the method: In 96-well plates either human SH-SY5Y neuroblastoma cells at 2.5×10^4 cells/well or E18 rat neuronal cells at 1.5×10^4 cells/well were seeded. To each well the following was added, Amyloid Beta peptide 1-25 (source) at a concentration of 30 uM, retinoic acid (10 uM) and test compounds (0-30 uM) and incubated for 3 hours. Supernatant was discarded and cells were fixed with 4% paraformaldehyde (100 ul/well) for 20 minutes. FACE cell based ELISA assay (Active Motif) was performed specific for quantifying phosphorlyated c-Jun (serine-73).

Experiment [6] relates to rat chronic constriction injury (CCI) model of neuropathic pain. The experiment in a line: Rat chronic constriction injury (CCI) model of neuropathic pain. The class given is in vivo. The following applies: for IP CCI efficacy (Change in grams): dose not given, 50% paw withdrawal threshold, von Frey.
In experiment [7] the test system is at least one of JNK 3 or JNK 2 and at least one of PDE 10 or PDE 4. As to the kind of experiment: Dual inhibition (phosphodiesterase and JNK). In kind it is biochemical, human. The conditions noted are these: IC50 JNK 3 or JNK 2 less than about 5.00 μM and PDE 10 or PDE 4 less than about 20.0 or 30.0 μM. The method in brief: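 JNK2/JNK3: full-length human enzyme with 3 uM ATF2 and 10 uM ATP for 1 h, ATP depletion by luciferase luminescence. PDE4B catalytic domain with 5 uM cAMP, or PDE10A1 with 1 uM cAMP, 1 h; AMP converted to ATP for luminescence. Compounds 0–30 uM; IC50 by nonlinear regression.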

[8] abbreviates: 10 uM ATP, ATF2 substrate, read-out: JNK 2 Inhibition (IC50 in μM).
The mark [9] stands for this setting: read-out: MCP-1 BV-2 (EC50 in μM).
Setting [10] is: read-out: TNF-a BV-2 (EC50 in μM).
[11] abbreviates: Amyloid Beta peptide 30 uM, 3 hours, read-out: p-cJun Abeta SH-SY5Y (EC50 in μM).
Setting [12] is: read-out: IC50 value based upon a JNK 2 inhibition assay (range given).
Where [13] appears, read: read-out: p-cJun SH-SY5Y (EC50 in μM), no Abeta.

Each structure is given as a SMILES string. Where two headings read alike, the source gives them in different places.

T1 sequence (P45984 whole entry): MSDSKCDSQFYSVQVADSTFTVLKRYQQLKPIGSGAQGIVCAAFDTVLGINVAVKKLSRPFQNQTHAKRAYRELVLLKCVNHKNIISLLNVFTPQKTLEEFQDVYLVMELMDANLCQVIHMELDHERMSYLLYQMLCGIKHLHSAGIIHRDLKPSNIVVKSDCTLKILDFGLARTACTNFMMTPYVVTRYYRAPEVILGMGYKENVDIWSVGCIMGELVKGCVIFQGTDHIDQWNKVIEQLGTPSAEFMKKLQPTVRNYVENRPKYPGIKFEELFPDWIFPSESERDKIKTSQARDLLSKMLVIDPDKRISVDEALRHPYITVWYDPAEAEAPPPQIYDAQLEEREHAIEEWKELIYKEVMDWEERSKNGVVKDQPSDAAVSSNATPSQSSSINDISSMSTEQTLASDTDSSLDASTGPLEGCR

A word on the IC50: it is the concentration that inhibits the measured activity by half. The EC50 is the concentration giving half of the maximal effect. As to `CC(C)Nc1nccc(-c2c(C(C)C)nn3ccccc23)n1` [AV1137, N-isopropyl-4-(2-isopropylpyrazolo[1,5-a]pyridin-3-yl)pyrimidin-2-amine], the figures for the IC50 in experiment [1] (setting [8]) and in experiment [2] were 1.6 µM and 9.9 µM, respectively. Moreover, the “PDE-10 inhibition (in words)” value in experiment [2] is “particularly effective”. Besides, the EC50 was 1.1 µM in experiment [3] (setting [9]), 1.2 µM in experiment [3] (setting [10]), over 30 µM in experiment [4] (setting [11]) and 3 µM in experiment [5]. The “inhibiting glial cell activation (TNF-α and/or MCP-1)” value (from here on “inhibiting glial cell activation”) in experiment [3] is “Particularly effective”. The “IP CCI efficacy (Change in grams)” value in experiment [6] stood at 3.26 grams. Moreover, the “PO CCI efficacy (Change in grams)” value in experiment [6] (75 mg/kg) was 0.94 (75 mg/kg) grams. Further, the “dual inhibition (phosphodiesterase and JNK)” value (“dual inhibition” for short) in experiment [7] was “effective dual inhibitors”.
With `CC(C)Nc1nccc(-c2cnn3ccccc23)n1` [AV1164, N-isopropyl-4-(pyrazolo[1,5-a]pyridin-3-yl)pyrimidin-2-amine], the IC50 is 0.5 µM in experiment [1] (setting [8]), 0.01 to 2 µM in experiment [1] (setting [12]) and 5.8 µM in experiment [2]. Besides, the “PDE-10 inhibition (in words)” value in experiment [2] is recorded as “particularly effective”. Moreover, the EC50 is 4.9 µM in experiment [3] (setting [9]); 0.4 µM in experiment [3] (setting [10]); 2.9 µM in experiment [4] (setting [11]); 1.1 µM in experiment [4] (setting [13]); 1.4 µM in experiment [5]. The “inhibiting glial cell activation” value in experiment [3] was “Particularly effective”. Moreover, the “IP CCI efficacy (Change in grams)” value in experiment [6] is recorded as 1.56 grams. Also, the “dual inhibition” value in experiment [7] was “effective dual inhibitors”.
Consider `c1ccn2ncc(-c3ccnc(NC4CCCC4)n3)c2c1` [AV1165, N-cyclopentyl-4-(pyrazolo[1,5-a]pyridin-3-yl)pyrimidin-2-amine], for which the figures for the IC50 in experiment [1] (setting [8]), in experiment [1] (setting [12]) and in experiment [2] were 0.4 µM, 0.01 to 2 µM and 7.5 µM, respectively. Besides, the “PDE-10 inhibition (in words)” value in experiment [2] is “particularly effective”. Also, the EC50 in experiment [3] (setting [9]) stood at 0.6 µM; in experiment [3] (setting [10]) it was 0.2 µM; in experiment [4] (setting [13]) it was 7.6 µM; in experiment [5], 15 µM. For the same compound, the “inhibiting glial cell activation” value in experiment [3] is listed as “Particularly effective”. In experiment [6], the “IP CCI efficacy (Change in grams)” value worked out at 0.44 grams. Also, in experiment [7], the “dual inhibition” value is on record as “effective dual inhibitors”.
Consider `CC(C)Nc1nccc(-c2c(C3CC3)nn3ccccc23)n1` [AV1173, 4-(2-cyclopropylpyrazolo[1,5-a]pyridin-3-yl)-N-isopropylpyrimidin-2-amine], for which the IC50 in experiment [1] (setting [8]) was 0.3 µM; in experiment [1] (setting [12]), 0.01 to 2 µM; in experiment [2] it was 7.4 µM. Further, the “PDE-10 inhibition (in words)” value in experiment [2] is “particularly effective”. In addition, the EC50 turned out to be 0.7 µM in experiment [3] (setting [9]) and 1.4 µM in experiment [3] (setting [10]). For the same compound, the “inhibiting glial cell activation” value in experiment [3] is listed as “Particularly effective”. Moreover, in experiment [6], the “IP CCI efficacy (Change in grams)” value is recorded as 2.5 grams. The “PO CCI efficacy (Change in grams)” value in experiment [6] (30 mg/kg) was 1.6 (30 mg/kg) grams. Further, the reversal of allodynia result in experiment [6] (oral dosing, multi-day, 24 hr time-points, FIG. 6) is “capable of reversing allodynia and sustaining the efficacy overnight”. Also, in experiment [7], the “dual inhibition” value is on record as “effective dual inhibitors”.
